Data as given in patent US20170022171A1, “2,5-DISUBSTITUTED CYCLOPENTANECARBOXYLIC ACIDS AND THEIR USE” (Bayer Pharma Aktiengesellschaft, priority 2014, published 2017).

Assays:
Assay type in all cases: biochemical
[1] = target: T1, human macrophage elastase (HME/hMMP-12) (Homo sapiens, UniProt P39900); test: In vitro HME inhibition test (standard or high-sensitivity); settings: in some cases mean values
T1 construct: 0.5 nM HME; purchased R&D Systems 917-MP
Procedure, shortened: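 Fluorogenic assay: 0.5 nM autoactivated HME with 5 µM Mca-Pro-Leu-Gly-Leu-Glu-Glu-Ala-Dap(Dnp)-NH2 in HEPES pH 7.4 buffer (NaCl, CaCl2, ZnCl2, EDTA, Brij), 2 h at 37 °C; ex 323/em 393 nm. IC50 from fluorescence versus concentration. High-sensitivity format: ~0.05 nM enzyme, ~16 h incubation.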

MMP-1 = target: T2, MMP-1 (Homo sapiens, UniProt P03956); test: In vitro MMP-1 inhibition test
T2 construct: purchased R&D Systems 901-MP
T2 sequence (P03956 100-469): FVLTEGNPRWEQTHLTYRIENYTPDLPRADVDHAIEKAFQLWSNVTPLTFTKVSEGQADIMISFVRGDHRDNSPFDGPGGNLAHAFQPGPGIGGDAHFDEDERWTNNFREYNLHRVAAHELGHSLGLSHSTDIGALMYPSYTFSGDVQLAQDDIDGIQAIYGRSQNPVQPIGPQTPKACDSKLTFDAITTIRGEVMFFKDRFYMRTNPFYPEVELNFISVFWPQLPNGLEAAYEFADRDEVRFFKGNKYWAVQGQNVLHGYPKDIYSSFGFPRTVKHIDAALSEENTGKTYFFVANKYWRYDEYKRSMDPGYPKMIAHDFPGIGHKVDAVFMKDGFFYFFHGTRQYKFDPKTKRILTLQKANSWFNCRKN
Description: (§1) The MMP-mediated amidolytic cleavage of a suitable peptide substrate leads to an increase in fluorescent light here too. The signal intensity of the fluorescent light is directly proportional to the enzyme activity. The active concentration of a test compound at which half the enzyme is inhibited (50% signal intensity of the fluorescent light) is reported as the IC50 value.
(§2) Recombinant MMP-1 (from R&D Systems, 901-MP) is chemically activated in accordance with the manufacturer's instructions using APMA. 1 μl of the test compound to be analysed (as a solution in DMSO, suitable concentrations, for example, 1 nM to 30 μM) is pipetted into 24 μl of activated enzyme (final concentration, for example, 2 nM) in reaction buffer (50 mM Tris/HCl pH 7.5, 10 mM CaCl2, 150 mM NaCl, 0.05% Brij®-35) in a white 384-hole microtiter plate (MTP). The enzymatic reaction is started by adding the intramolecularly quenched Mca-Pro-Leu-Gly-Leu-Dpa(Dnp)-Ala-Arg-NH2 substrate (final concentration, for example, 10 μM; R&D Systems, ES-001), so as to result in a total test volume of 50 μl. The course of the MMP-1 reaction is measured by measuring the fluorescence intensity (excitation 320 nm, emission 410 nm) over a suitable period of time (for example over 120 min at a temperature of 32° C.).

MMP-9 = target: T3, MMP-9 (Homo sapiens, UniProt P14780); test: In vitro MMP-9 inhibition test
T3 construct: purchased R&D Systems 911-MP
Description: as §1
as §2, with “Recombinant MMP-9” for “Recombinant MMP-1”, “Systems, 911-MP)” for “Systems, 901-MP)”, “example, 0.1” for “example, 2”, “the MMP-9” for “the MMP-1”

MMP-14 = target: T4, MMP-14 (Homo sapiens, UniProt P50281); test: In vitro MMP-14 inhibition test
T4 construct: purchased R&D Systems 918-MP
Description: as §1
Recombinant MMP-14 (from R&D Systems, 918-MP) is enzymatically activated in accordance with the manufacturer's instructions using recombinant furin (from R&D Systems, 1503-SE). 1 μl of the test compound to be analysed (as a solution in DMSO, suitable concentrations e.g. 1 nM to 30 μM) is pipetted into 24 μl of activated enzyme (final concentration e.g. 0.5 nM) in reaction buffer (50 mM Tris/HCl pH 7.5, 10 mM CaCl2, 150 mM NaCl, 0.05% Brij®-35) in a white 384-hole microtiter plate (MTP). The enzymatic reaction is started by adding the intramolecularly quenched Mca-Lys-Pro-Leu-Gly-Leu-Dpa(Dnp)-Ala-Arg-NH2 substrate (final concentration, for example, 5 μM; R&D Systems, ES-010), so as to result in a total test volume of 50 The course of the MMP-14 reaction is measured by measuring the fluorescence intensity (excitation 320 nm, emission 410 nm) over a suitable period of time (for example over 120 min at a temperature of 32° C.).

T3 sequence (P14780 107-707 limits assumed): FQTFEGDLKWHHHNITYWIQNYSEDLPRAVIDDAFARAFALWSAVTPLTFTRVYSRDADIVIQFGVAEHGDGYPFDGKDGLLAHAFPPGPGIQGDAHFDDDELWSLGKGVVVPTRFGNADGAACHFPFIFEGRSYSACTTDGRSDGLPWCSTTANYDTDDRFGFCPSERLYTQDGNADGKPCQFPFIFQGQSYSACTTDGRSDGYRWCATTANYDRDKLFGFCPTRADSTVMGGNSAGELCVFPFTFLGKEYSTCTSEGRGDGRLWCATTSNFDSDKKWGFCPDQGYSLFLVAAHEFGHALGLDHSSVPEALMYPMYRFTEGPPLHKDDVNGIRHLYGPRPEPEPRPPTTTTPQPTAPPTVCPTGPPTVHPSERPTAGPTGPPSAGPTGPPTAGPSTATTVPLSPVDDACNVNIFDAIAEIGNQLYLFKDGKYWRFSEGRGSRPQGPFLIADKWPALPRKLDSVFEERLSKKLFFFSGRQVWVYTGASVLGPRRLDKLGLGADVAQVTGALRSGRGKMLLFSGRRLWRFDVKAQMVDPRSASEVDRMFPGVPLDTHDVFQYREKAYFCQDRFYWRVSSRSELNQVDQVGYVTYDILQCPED
T1 sequence (P39900 106-470): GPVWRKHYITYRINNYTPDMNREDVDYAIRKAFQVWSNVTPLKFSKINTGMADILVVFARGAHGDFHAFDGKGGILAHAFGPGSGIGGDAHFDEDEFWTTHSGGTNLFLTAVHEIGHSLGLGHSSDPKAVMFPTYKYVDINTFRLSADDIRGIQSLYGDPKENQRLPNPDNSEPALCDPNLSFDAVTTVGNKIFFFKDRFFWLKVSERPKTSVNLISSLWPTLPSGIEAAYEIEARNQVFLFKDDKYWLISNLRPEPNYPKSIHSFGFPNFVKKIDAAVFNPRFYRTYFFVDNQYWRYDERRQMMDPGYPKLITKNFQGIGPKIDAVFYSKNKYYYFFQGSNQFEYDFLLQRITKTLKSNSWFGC

SMILES | IC50 [1] [nM] | IC50 (MMP-1) [nM] | IC50 (MMP-9) [nM] | IC50 (MMP-14) [nM]
O=C(O)[C@@H]1[C@@H](Cn2nnc3ccc(C(F)(F)F)cc3c2=O)CC[C@H]1C(=O)c1ccc(OCC2CCCCC2)cc1 (single isomer, unassigned) [Example 41, (+)-(1RS,2RS,5SR)-2-[4-(Cyclohexylmethoxy)benzoyl]-5-{[4-oxo-6-(trifluoromethyl)-1,2,3-benzotriazin-3(4H)-yl]methyl}cyclopentanecarboxylic acid] | 0.01 | 3100 | 51 | 110
O=C(O)[C@@H]1[C@@H](Cn2nnc3ccc(C(F)(F)F)cc3c2=O)CC[C@H]1C(=O)c1ccc(OCC2CCCC2)cc1 (single isomer, unassigned) [Example 44, (+)-(1RS,2RS,5SR)-2-[4-(Cyclopentylmethoxy)benzoyl]-5-{[4-oxo-6-(trifluoromethyl)-1,2,3-benzotriazin-3(4H)-yl]methyl}cyclopentanecarboxylic acid] | 0.024 | 3600 | 52 | 88
O=C(O)[C@@H]1[C@@H](Cn2nnc3ccc(C(F)(F)F)cc3c2=O)CC[C@H]1C(=O)c1ccc(OCCC2CCCCC2)cc1 (single isomer, unassigned) [Example 52, (+)-(1RS,2RS,5SR)-2-[4-(2-Cyclohexylethoxy)benzoyl]-5-{[4-oxo-6-(trifluoromethyl)-1,2,3-benzotriazin-3(4H)-yl]methyl}cyclopentanecarboxylic acid] | 0.017 | 6300 | 830 | 3600
O=C(O)[C@@H]1[C@@H](Cn2nnc3ccc(C(F)(F)F)cc3c2=O)CC[C@H]1C(=O)c1ccc(OCCC2CCCC2)cc1 (single isomer, unassigned) [Example 55, (+)-(1RS,2RS,5SR)-2-[4-(2-Cyclopentylethoxy)benzoyl]-5-{[4-oxo-6-(trifluoromethyl)-1,2,3-benzotriazin-3(4H)-yl]methyl}cyclopentanecarboxylic acid] | 0.037 | 15000 | 940 | 2400
CCCCCCOc1ccc(C(=O)[C@@H]2CC[C@H](Cn3nnc4ccc(C(F)(F)F)cc4c3=O)[C@H]2C(=O)O)cc1 (single isomer, unassigned) [Example 58, (+)-(1RS,2RS,5SR)-2-[4-(Hexyloxy)benzoyl]-5-{[4-oxo-6-(trifluoromethyl)-1,2,3-benzotriazin-3(4H)-yl]methyl}cyclopentanecarboxylic acid] | 0.027 | 8400 | 83 | 1300
CCCCOc1ccc(C(=O)[C@@H]2CC[C@H](Cn3nnc4ccc(C(F)(F)F)cc4c3=O)[C@H]2C(=O)O)cc1 (single isomer, unassigned) [Example 67, (+)-(1RS,2RS,5SR)-2-(4-Butoxybenzoyl)-5-{[4-oxo-6-(trifluoromethyl)-1,2,3-benzotriazin-3(4H)-yl]methyl}cyclopentanecarboxylic acid] | 0.015 | 5200 | 61 | 96
O=C(O)[C@@H]1[C@@H](Cn2nnc3ccc(C(F)(F)F)cc3c2=O)CC[C@H]1C(=O)c1ccc(SCc2ccccc2)cc1 (single isomer, unassigned) [Example 75, (+)-(1RS,2RS,5SR)-2-[4-(Benzylsulphanyl)benzoyl]-5-{[4-oxo-6-(trifluoromethyl)-1,2,3-benzotriazin-3(4H)-yl]methyl}cyclopentanecarboxylic acid] | 0.051 | 21000 | 470 | 1900

The remaining lines, values ahead:

IC50 [1] [nM] | IC50 (MMP-1) [nM] | IC50 (MMP-9) [nM] | IC50 (MMP-14) [nM] | SMILES
0.04 | 2900 | 550 | 1200 | O=C(O)[C@@H]1[C@@H](Cn2nnc3ccc(C(F)(F)F)cc3c2=O)CC[C@H]1C(=O)c1ccc(SCc2cccc(Cl)c2)cc1 (single isomer, unassigned) [Example 77, (+)-(1RS,2RS,5SR)-2-{4-[(3-Chlorobenzyl)sulphanyl]benzoyl}-5-{[4-oxo-6-(trifluoromethyl)-1,2,3-benzotriazin-3(4H)-yl]methyl}cyclopentanecarboxylic acid]
0.079 | 2500 | 780 | 2600 | O=C(O)[C@@H]1[C@@H](Cn2nnc3ccc(C(F)(F)F)cc3c2=O)CC[C@H]1C(=O)c1ccc(SCc2ccc(Cl)c(Cl)c2)cc1 (single isomer, unassigned) [Example 80, (+)-(1RS,2RS,5SR)-2-{4-[(3,4-Dichlorobenzyl)sulphanyl]benzoyl}-5-{[4-oxo-6-(trifluoromethyl)-1,2,3-benzotriazin-3(4H)-yl]methyl}cyclopentanecarboxylic acid]
0.048 | 3100 | 13 | 33 | Cc1ccc2nnn(C[C@H]3CC[C@@H](C(=O)c4ccc(OCc5ccccc5)cc4)[C@@H]3C(=O)O)c(=O)c2c1 (single isomer, unassigned) [Example 92, (+)-(1RS,2RS,5SR)-2-[4-(Benzyloxy)benzoyl]-5-[(6-methyl-4-oxo-1,2,3-benzotriazin-3(4H)-yl)methyl]cyclopentanecarboxylic acid]
0.1 | 9600 | 280 | 210 | Cc1cccc(COc2ccc(C(=O)[C@@H]3CC[C@H](Cn4nnc5ccc(C)cc5c4=O)[C@H]3C(=O)O)cc2)c1 (single isomer, unassigned) [Example 98, (+)-(1RS,2RS,5SR)-2-{4-[(3-Methylbenzyl)oxy]benzoyl}-5-[(6-methyl-4-oxo-1,2,3-benzotriazin-3(4H)-yl)methyl]cyclopentanecarboxylic acid]
0.086 | 14000 | 100 | 380 | Cc1ccc2nnn(C[C@H]3CC[C@@H](C(=O)c4ccc(OCc5cccc(C(F)(F)F)c5)cc4)[C@@H]3C(=O)O)c(=O)c2c1 (single isomer, unassigned) [Example 101, (+)-(1RS,2SR,5RS)-2-[(6-Methyl-4-oxo-1,2,3-benzotriazin-3(4H)-yl)methyl]-5-(4-{[3-(trifluoromethyl)benzyl]oxy}benzoyl)cyclopentanecarboxylic acid]
0.12 | 3900 | 110 | 230 | Cc1ccc2nnn(C[C@H]3CC[C@@H](C(=O)c4ccc(OCc5cccc(Cl)c5)cc4)[C@@H]3C(=O)O)c(=O)c2c1 (single isomer, unassigned) [Example 104, (+)-(1RS,2RS,5SR)-2-{4-[(3-Chlorobenzyl)oxy]benzoyl}-5-[(6-methyl-4-oxo-1,2,3-benzotriazin-3(4H)-yl)methyl]cyclopentanecarboxylic acid]
